Assay results as given in ChEMBL document CHEMBL2073969, “Increased renal expression of bilirubin glucuronide transporters in a rat model of obstructive jaundice” (Am J Physiol Gastrointest Liver Physiol, 2002).

Molecular target: ATP-binding cassette sub-family C member 2 (Homo sapiens, UniProt Q92887)
Test: TP_TRANSPORTER: RT-PCR in renal proximal tubular epithelial cells
Format: functional, tissue-based, Kidney
Details: epithelial cell

ATP-binding cassette sub-family C member 2, sequence (Q92887 whole entry): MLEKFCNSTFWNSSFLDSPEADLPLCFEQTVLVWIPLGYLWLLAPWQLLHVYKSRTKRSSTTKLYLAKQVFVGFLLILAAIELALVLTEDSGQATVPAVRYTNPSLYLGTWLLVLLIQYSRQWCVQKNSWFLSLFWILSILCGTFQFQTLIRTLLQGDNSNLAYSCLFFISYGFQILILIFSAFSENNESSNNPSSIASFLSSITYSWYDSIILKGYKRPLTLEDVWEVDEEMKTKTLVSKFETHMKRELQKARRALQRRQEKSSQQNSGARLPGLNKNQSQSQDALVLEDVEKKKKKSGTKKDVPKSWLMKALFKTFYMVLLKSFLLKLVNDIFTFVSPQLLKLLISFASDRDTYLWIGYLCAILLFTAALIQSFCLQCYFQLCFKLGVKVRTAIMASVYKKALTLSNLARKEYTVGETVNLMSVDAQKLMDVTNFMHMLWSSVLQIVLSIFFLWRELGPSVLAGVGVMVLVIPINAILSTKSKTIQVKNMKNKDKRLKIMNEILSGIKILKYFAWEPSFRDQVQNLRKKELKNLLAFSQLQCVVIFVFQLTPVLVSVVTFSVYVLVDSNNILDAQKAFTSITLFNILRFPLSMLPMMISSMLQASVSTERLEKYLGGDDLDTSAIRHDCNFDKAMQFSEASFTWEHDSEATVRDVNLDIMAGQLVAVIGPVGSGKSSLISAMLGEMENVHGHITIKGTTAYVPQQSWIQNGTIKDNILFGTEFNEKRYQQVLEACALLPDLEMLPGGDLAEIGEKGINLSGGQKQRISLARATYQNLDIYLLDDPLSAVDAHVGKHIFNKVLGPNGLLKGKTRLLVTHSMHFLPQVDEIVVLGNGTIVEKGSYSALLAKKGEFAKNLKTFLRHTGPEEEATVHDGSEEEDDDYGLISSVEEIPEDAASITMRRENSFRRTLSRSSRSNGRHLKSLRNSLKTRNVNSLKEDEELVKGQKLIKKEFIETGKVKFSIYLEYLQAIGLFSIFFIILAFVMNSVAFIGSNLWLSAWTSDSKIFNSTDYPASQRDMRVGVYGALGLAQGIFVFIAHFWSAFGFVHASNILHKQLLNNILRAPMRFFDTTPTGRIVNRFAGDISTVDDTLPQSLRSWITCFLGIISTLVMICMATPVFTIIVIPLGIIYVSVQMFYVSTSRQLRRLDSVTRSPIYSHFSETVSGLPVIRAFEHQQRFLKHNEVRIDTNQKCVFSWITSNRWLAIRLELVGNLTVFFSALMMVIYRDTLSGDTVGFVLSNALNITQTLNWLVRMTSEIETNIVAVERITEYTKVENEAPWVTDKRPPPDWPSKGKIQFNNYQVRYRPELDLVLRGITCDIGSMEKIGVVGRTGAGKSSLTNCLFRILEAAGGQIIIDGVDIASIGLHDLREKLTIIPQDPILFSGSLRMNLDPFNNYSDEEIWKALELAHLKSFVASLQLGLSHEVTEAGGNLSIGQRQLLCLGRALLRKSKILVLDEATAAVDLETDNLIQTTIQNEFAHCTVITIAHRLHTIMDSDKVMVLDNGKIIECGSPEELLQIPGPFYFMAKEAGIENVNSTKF

C=CC1=C(C)/C(=C/c2[nH]c(Cc3[nH]c(/C=C4\NC(=O)C(C)=C4C=C)c(C)c3CCC(=O)NCCS(=O)(=O)O)c(CCC(=O)NCCS(=O)(=O)O)c2C)NC1=O [BILIRUBIN DITAURATE]
Activity: inducer [+]

C[C@H](CCC(=O)NCCS(=O)(=O)O)[C@H]1CC[C@H]2[C@@H]3CC[C@@H]4C[C@H](O)CC[C@]4(C)[C@H]3CC[C@]12C [TAUROLITHOCHOLIC ACID]
Activity: inducer [+]
